Experimental findings from US20220127297A1, “Novel Antibacterial 3"-Derivatives Of 4,6-Disubstituted 2,5-Dideoxystreptamine Aminoglycoside Antibiotics” (AGILeBiotics B.V., priority 2018, published 2022) are described below.

Common to all, as to assay: MIC determination at Uppsala University
Format in all cases: cell-based

The test system of one test is E. coli C1162. Conditions: Escherichia coli, APH(3′)-Ia. The text has this: (§1) 3.4.1 MIC Determination at Uppsala University (Sweden)
(§2) Tested reference compounds. Amikacin disulfate (Cat. No. A1774, Sigma Aldrich), Apramycin sulfate (Cat. No. A2024, Sigma Aldrich) and Gentamicin sulfate (Cat. No. G1914, Sigma Aldrich).
(§3) Bacterial strains/isolates. All assayed laboratory and clinical strains (P. aeruginosa PA01, A. baumanii ATCC 19606, A. baumanii 195N(a), A. baumanii 48F, E. coli C1162, E. coli C1181, M. morgannii S49 and P. stuartii B8-1) were from the IMI ND4BB ENABLE consortium strain collection. ATCC laboratory strains were acquired directly from the American Type Culture Collection. Clinical strains used were previously published (M Juhas, et al. J. Antimicrob. Chemother., 74 (4), 944-952 (2019); D. Hughes et al., Antimicrob. Agents Chemother., 47 (10), 3222-3232 (2003)) and were resistance genotyped within the ENABLE consortium.
(§4) Culture media and equipment. Water (Thermo Scientific, R05819); Mueller-Hinton II broth (BD Ref. 212322); sterile round-bottom 96-well plates (Thermo Scientific, 262162); Sensititre Nephelometer (ThermoFisher Scientific, V3011); 0.5 McFarland Standard (ThermoFisher Scientific, E1041); sterile polyester film (VWR, 391-1251).
(§5) Compound preparation. MIC assay procedure follows the CLSI M07 standard method (Clinical and Laboratory Standards Institute (CLSI); Methods for dilution antimicrobial susceptibility tests for bacteria that grow aerobically; approved standard—eleventh edition, M07-A10, Vol. 38, No. 2, 2018). Test compounds were received as solids and were dissolved in water to a concentration of 10 mg/mL of active compound. […] This solution was serially diluted in 2-fold steps in the first 10 columns of sterile round-bottom 96-well plates, while the final two columns were filled with Mueller-Hinton II broth without added compound for use as positive and negative growth controls.
(§6) Inoculum preparation. Inoculums were prepared by suspending several colonies freshly streaked culture of test strains in 5 mL of sterile 0.9% NaCl. The cell density of the inoculum solution was assessed and adjusted using a Sensititre Nephelometer and a 0.5 McFarland Standard. The inoculum was diluted 1:100 in Mueller-Hinton II broth and 50 μL of this inoculum solution was added to 50 μL of the test compound solutions yielding a concentration range of 64-0.125 μg/mL. The plates were sealed with sterile polyester film and stationarily incubated at 37° C. for 18 hours.
(§7) MIC determination. The MIC value was determined by visual inspection of bacterial growth within 96-well plates. The lowest concentration completely inhibiting growth was reported as the MIC for each strain and compound combination.

The next test relates to A. baumanii 195N (a). Conditions: Acinetobacter baumannii, AAC(3)Ia, ANT(3″)Ia, APH(3″)Ib, APH(3′)VI, APH(6)Id.
Description: as §1, §2, §3, §4, §5, §6, §7

Another test concerns A. baumanii 48F. The conditions noted are these: Acinetobacter baumannii; A. boumanii 48F; ANT(2″)Ia, APH(3″)-Ib, APH(3′)-VIa, APH(6)-Id.
Description: as §1, §2, §3, §4, §5, §6, §7

The next test has as its system E. coli C1181. The conditions noted are these: Escherichia coli, ANT(3″)-Ia, APH(3′)-Ia.
Description: as §1, §2, §3, §4, §5, §6, §7

The test system of a further test is A. baumanii ATCC 19606. The conditions noted are these: Acinetobacter baumannii, ATCC19606, AMEs: WT.
Description: as §1, §2, §3, §4, §5, §6, §7

The test system of the next test is M. morgannii S49. Conditions: Morganella morganii, AAC(3)-IId, ANT(3″), APH(3″)-Ib, APH(3′)-Ia, APH(6)-Id.
Description: as §1, §2, §3, §4, §5, §6, §7

Another test deals with P. aeruginosa PAO1. The conditions noted are these: Pseudomonas aeruginosa, AMEs: WT.
Description: as §1, §2, §3, §4, §5, §6, §7

The test system of another test is P. stuartii B8-1. The conditions noted are these: Providencia stuartii, B81, AAC(3)-Ic, ANT (3″)Ia, APH(3′)-IIa, APH(3′)-IIb, APH(3′)-VI, APH(6)-Ic.
Description: as §1, §2, §3, §4, §5, §6, §7

As to `CN[C@@H]1[C@@H](O[C@H]2O[C@H](CO)[C@@H](N)[C@H](O)[C@H]2O)OC2C[C@@H](N)[C@@H](O[C@H]3[C@H](O)[C@@H](O)[C@H](N)C[C@@H]3N)OC2[C@@H]1O` (some centres unmarked) [Apramycin, apramycin, reference compound], the MIC90 (commonly an inhibitory concentration at the 90% level, which refers to growth in some studies and to a panel of isolates in others) is 8 µg/mL in the test with E. coli C1162; 32 µg/mL in the test on A. baumanii 195N (a); 32 µg/mL with A. baumanii 48F; 8 µg/mL in the test on E. coli C1181; 32 µg/mL with A. baumanii ATCC 19606; 8 µg/mL with M. morgannii S49. The MIC90 in the test on P. aeruginosa PAO1 and in the test with P. stuartii B8-1 was 8 µg/mL throughout.
